In the supplement of paper PMC8967900:

The compounds below were run on MN-60 (assay: selective drug sensitivity score (sDSS, relative to normal bone marrow) (sDSS (score)); higher = more potent and effective on the cell line relative to normal bone marrow cells). Settings: 72 h.
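Note: ALL cell lines in 384-well plates, five doses spanning 10,000-fold, each plate scaled between vehicle and 100 µmol/L benzalkonium chloride controls, sDSS an adapted area-under-curve metric.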

SMILES	selective drug sensitivity score
NCCNc1ccc(NCCN)c2c1C(=O)c1ccncc1C2=O [Pixantrone] (top concentration 10000 nM)	-2.76
c1cc(CN2CCCNCCNCCCNCC2)ccc1CN1CCCNCCNCCCNCC1 [Plerixafor] (top concentration 10000 nM)	0
O=C(c1ccc(OCCN2CCCCC2)cc1)c1c(-c2ccc(O)cc2)sc2cc(O)ccc12 [Raloxifene] (top concentration 10000 nM)	1.92
CN(C)C(=O)c1cc2cnc(Nc3ccc(N4CCNCC4)cn3)nc2n1C1CCCC1 [Ribociclib] (top concentration 10000 nM)	-1.62
CN1CCN(CCOc2cc(OC3CCOCC3)c3c(Nc4c(Cl)ccc5c4OCO5)ncnc3c2)CC1 [Saracatinib] (top concentration 10000 nM)	3.38
C=CC(=O)Nc1cccc(Nc2nc(Nc3ccc(OCCOC)cc3)ncc2F)c1 [Spebrutinib] (top concentration 1000 nM)	-0.16
C[C@@H]1CN(Cc2ccc(F)cc2)[C@@H](C)CN1C(=O)c1cc2c(C(=O)C(=O)N(C)C)cn(C)c2cc1Cl [Talmapimod] (top concentration 10000 nM)	0
C[C@@H](C(=O)O)c1ccc(-c2ccccc2)c(F)c1 [Tarenflurbil] (top concentration 10000 nM)	-0.16
CNC(=O)c1cc(COc2nnc(Nc3ccc(Cl)cc3)c3ccoc23)ccn1 [Telatinib] (top concentration 10000 nM)	0
O=c1sn(-c2cccc3ccccc23)c(=O)n1Cc1ccccc1 [Tideglusib] (top concentration 3000 nM)	-0.3
COc1cc2nccc(Oc3ccc(NC(=O)Nc4cc(C)on4)c(Cl)c3)c2cc1OC [Tivozanib] (top concentration 10000 nM)	0.66
Cc1cc(Nc2cc(N3CCN(C)CC3)nc(Sc3ccc(NC(=O)C4CC4)cc3)n2)n[nH]1 [Tozasertib] (top concentration 10000 nM)	-0.74
CC1=C(/C=C/C(C)=C/C=C/C(C)=C/C(=O)O)C(C)(C)CCC1 [Tretinoin] (top concentration 10000 nM)	-2.4
COC(=O)c1ccc2c(c1)[nH]c1ncnc(NCCCN3CCCCC3)c12 [UM729] (top concentration 10000 nM)	1.04
COc1cc2c(NC3CCN(C(C)C)CC3)nc(N3CCC(F)(F)CC3)nc2cc1OCCCN1CCCC1 [UNC0642] (top concentration 10000 nM)	-3.74
O=C(c1ccc(C(=O)N2CCC(N3CCCC3)CC2)c(Nc2ccccc2)c1)N1CCC(N2CCCC2)CC1 [UNC1215] (top concentration 10000 nM)	0
CCCC(CCC)C(=O)O [Valproic_acid] (top concentration 1000000 nM)	0
Clc1ccc(Nc2nnc(Cc3ccncc3)c3ccccc23)cc1 [Vatalanib] (top concentration 10000 nM)	0.1
CCCS(=O)(=O)Nc1ccc(F)c(C(=O)c2c[nH]c3ncc(-c4ccc(Cl)cc4)cc23)c1F [Vemurafenib] (top concentration 10000 nM)	-1.14

What follows are compounds tested on MOLT-16 in the same assay as above. Settings: 72 h.

SMILES	selective drug sensitivity score
NCCNc1ccc(NCCN)c2c1C(=O)c1ccncc1C2=O [Pixantrone] (top concentration 10000 nM)	-2.46
c1cc(CN2CCCNCCNCCCNCC2)ccc1CN1CCCNCCNCCCNCC1 [Plerixafor] (top concentration 10000 nM)	0
O=C(c1ccc(OCCN2CCCCC2)cc1)c1c(-c2ccc(O)cc2)sc2cc(O)ccc12 [Raloxifene] (top concentration 10000 nM)	1.02
CN(C)C(=O)c1cc2cnc(Nc3ccc(N4CCNCC4)cn3)nc2n1C1CCCC1 [Ribociclib] (top concentration 10000 nM)	4.88
CN1CCN(CCOc2cc(OC3CCOCC3)c3c(Nc4c(Cl)ccc5c4OCO5)ncnc3c2)CC1 [Saracatinib] (top concentration 10000 nM)	2.38
C=CC(=O)Nc1cccc(Nc2nc(Nc3ccc(OCCOC)cc3)ncc2F)c1 [Spebrutinib] (top concentration 1000 nM)	0.64
C[C@@H]1CN(Cc2ccc(F)cc2)[C@@H](C)CN1C(=O)c1cc2c(C(=O)C(=O)N(C)C)cn(C)c2cc1Cl [Talmapimod] (top concentration 10000 nM)	0
C[C@@H](C(=O)O)c1ccc(-c2ccccc2)c(F)c1 [Tarenflurbil] (top concentration 10000 nM)	5.04
CNC(=O)c1cc(COc2nnc(Nc3ccc(Cl)cc3)c3ccoc23)ccn1 [Telatinib] (top concentration 10000 nM)	0
O=c1sn(-c2cccc3ccccc23)c(=O)n1Cc1ccccc1 [Tideglusib] (top concentration 3000 nM)	-0.3
COc1cc2nccc(Oc3ccc(NC(=O)Nc4cc(C)on4)c(Cl)c3)c2cc1OC [Tivozanib] (top concentration 10000 nM)	3.66
Cc1cc(Nc2cc(N3CCN(C)CC3)nc(Sc3ccc(NC(=O)C4CC4)cc3)n2)n[nH]1 [Tozasertib] (top concentration 10000 nM)	22.7
CC1=C(/C=C/C(C)=C/C=C/C(C)=C/C(=O)O)C(C)(C)CCC1 [Tretinoin] (top concentration 10000 nM)	-2.4
COC(=O)c1ccc2c(c1)[nH]c1ncnc(NCCCN3CCCCC3)c12 [UM729] (top concentration 10000 nM)	0.94
COc1cc2c(NC3CCN(C(C)C)CC3)nc(N3CCC(F)(F)CC3)nc2cc1OCCCN1CCCC1 [UNC0642] (top concentration 10000 nM)	-2.94
O=C(c1ccc(C(=O)N2CCC(N3CCCC3)CC2)c(Nc2ccccc2)c1)N1CCC(N2CCCC2)CC1 [UNC1215] (top concentration 10000 nM)	0
CCCC(CCC)C(=O)O [Valproic_acid] (top concentration 1000000 nM)	0
Clc1ccc(Nc2nnc(Cc3ccncc3)c3ccccc23)cc1 [Vatalanib] (top concentration 10000 nM)	0
CCCS(=O)(=O)Nc1ccc(F)c(C(=O)c2c[nH]c3ncc(-c4ccc(Cl)cc4)cc23)c1F [Vemurafenib] (top concentration 10000 nM)	3.76

What follows are compounds tested on NALL-1 in the same assay as above. Settings: 72 h.

SMILES	selective drug sensitivity score
NCCNc1ccc(NCCN)c2c1C(=O)c1ccncc1C2=O [Pixantrone] (top concentration 10000 nM)	-2.76
c1cc(CN2CCCNCCNCCCNCC2)ccc1CN1CCCNCCNCCCNCC1 [Plerixafor] (top concentration 10000 nM)	0
O=C(c1ccc(OCCN2CCCCC2)cc1)c1c(-c2ccc(O)cc2)sc2cc(O)ccc12 [Raloxifene] (top concentration 10000 nM)	-2.28
CN(C)C(=O)c1cc2cnc(Nc3ccc(N4CCNCC4)cn3)nc2n1C1CCCC1 [Ribociclib] (top concentration 10000 nM)	-1.62
CN1CCN(CCOc2cc(OC3CCOCC3)c3c(Nc4c(Cl)ccc5c4OCO5)ncnc3c2)CC1 [Saracatinib] (top concentration 10000 nM)	-2.02
C=CC(=O)Nc1cccc(Nc2nc(Nc3ccc(OCCOC)cc3)ncc2F)c1 [Spebrutinib] (top concentration 1000 nM)	6.34
C[C@@H]1CN(Cc2ccc(F)cc2)[C@@H](C)CN1C(=O)c1cc2c(C(=O)C(=O)N(C)C)cn(C)c2cc1Cl [Talmapimod] (top concentration 10000 nM)	0
C[C@@H](C(=O)O)c1ccc(-c2ccccc2)c(F)c1 [Tarenflurbil] (top concentration 10000 nM)	4.34
CNC(=O)c1cc(COc2nnc(Nc3ccc(Cl)cc3)c3ccoc23)ccn1 [Telatinib] (top concentration 10000 nM)	0
O=c1sn(-c2cccc3ccccc23)c(=O)n1Cc1ccccc1 [Tideglusib] (top concentration 3000 nM)	-0.3
COc1cc2nccc(Oc3ccc(NC(=O)Nc4cc(C)on4)c(Cl)c3)c2cc1OC [Tivozanib] (top concentration 10000 nM)	-1.74
Cc1cc(Nc2cc(N3CCN(C)CC3)nc(Sc3ccc(NC(=O)C4CC4)cc3)n2)n[nH]1 [Tozasertib] (top concentration 10000 nM)	19.8
CC1=C(/C=C/C(C)=C/C=C/C(C)=C/C(=O)O)C(C)(C)CCC1 [Tretinoin] (top concentration 10000 nM)	-2.4
COC(=O)c1ccc2c(c1)[nH]c1ncnc(NCCCN3CCCCC3)c12 [UM729] (top concentration 10000 nM)	-0.06
COc1cc2c(NC3CCN(C(C)C)CC3)nc(N3CCC(F)(F)CC3)nc2cc1OCCCN1CCCC1 [UNC0642] (top concentration 10000 nM)	-0.74
O=C(c1ccc(C(=O)N2CCC(N3CCCC3)CC2)c(Nc2ccccc2)c1)N1CCC(N2CCCC2)CC1 [UNC1215] (top concentration 10000 nM)	0
CCCC(CCC)C(=O)O [Valproic_acid] (top concentration 1000000 nM)	0
Clc1ccc(Nc2nnc(Cc3ccncc3)c3ccccc23)cc1 [Vatalanib] (top concentration 10000 nM)	0
CCCS(=O)(=O)Nc1ccc(F)c(C(=O)c2c[nH]c3ncc(-c4ccc(Cl)cc4)cc23)c1F [Vemurafenib] (top concentration 10000 nM)	-0.34

The compounds below were run on NALM-16 in the same assay as above. Settings: 72 h.

SMILES	selective drug sensitivity score
NCCNc1ccc(NCCN)c2c1C(=O)c1ccncc1C2=O [Pixantrone] (top concentration 10000 nM)	-2.76
c1cc(CN2CCCNCCNCCCNCC2)ccc1CN1CCCNCCNCCCNCC1 [Plerixafor] (top concentration 10000 nM)	0
O=C(c1ccc(OCCN2CCCCC2)cc1)c1c(-c2ccc(O)cc2)sc2cc(O)ccc12 [Raloxifene] (top concentration 10000 nM)	-2.28
CN(C)C(=O)c1cc2cnc(Nc3ccc(N4CCNCC4)cn3)nc2n1C1CCCC1 [Ribociclib] (top concentration 10000 nM)	1.48
CN1CCN(CCOc2cc(OC3CCOCC3)c3c(Nc4c(Cl)ccc5c4OCO5)ncnc3c2)CC1 [Saracatinib] (top concentration 10000 nM)	-2.02
C=CC(=O)Nc1cccc(Nc2nc(Nc3ccc(OCCOC)cc3)ncc2F)c1 [Spebrutinib] (top concentration 1000 nM)	-0.16
C[C@@H]1CN(Cc2ccc(F)cc2)[C@@H](C)CN1C(=O)c1cc2c(C(=O)C(=O)N(C)C)cn(C)c2cc1Cl [Talmapimod] (top concentration 10000 nM)	0
C[C@@H](C(=O)O)c1ccc(-c2ccccc2)c(F)c1 [Tarenflurbil] (top concentration 10000 nM)	0.04
CNC(=O)c1cc(COc2nnc(Nc3ccc(Cl)cc3)c3ccoc23)ccn1 [Telatinib] (top concentration 10000 nM)	0
O=c1sn(-c2cccc3ccccc23)c(=O)n1Cc1ccccc1 [Tideglusib] (top concentration 3000 nM)	-0.3
COc1cc2nccc(Oc3ccc(NC(=O)Nc4cc(C)on4)c(Cl)c3)c2cc1OC [Tivozanib] (top concentration 10000 nM)	-3.44
Cc1cc(Nc2cc(N3CCN(C)CC3)nc(Sc3ccc(NC(=O)C4CC4)cc3)n2)n[nH]1 [Tozasertib] (top concentration 10000 nM)	-0.34
CC1=C(/C=C/C(C)=C/C=C/C(C)=C/C(=O)O)C(C)(C)CCC1 [Tretinoin] (top concentration 10000 nM)	-2.4
COC(=O)c1ccc2c(c1)[nH]c1ncnc(NCCCN3CCCCC3)c12 [UM729] (top concentration 10000 nM)	0.44
COc1cc2c(NC3CCN(C(C)C)CC3)nc(N3CCC(F)(F)CC3)nc2cc1OCCCN1CCCC1 [UNC0642] (top concentration 10000 nM)	-3.74
O=C(c1ccc(C(=O)N2CCC(N3CCCC3)CC2)c(Nc2ccccc2)c1)N1CCC(N2CCCC2)CC1 [UNC1215] (top concentration 10000 nM)	0
CCCC(CCC)C(=O)O [Valproic_acid] (top concentration 1000000 nM)	0
Clc1ccc(Nc2nnc(Cc3ccncc3)c3ccccc23)cc1 [Vatalanib] (top concentration 10000 nM)	0
CCCS(=O)(=O)Nc1ccc(F)c(C(=O)c2c[nH]c3ncc(-c4ccc(Cl)cc4)cc23)c1F [Vemurafenib] (top concentration 10000 nM)	-1.14

The compounds below were run on P12-ICHIKAWA in the same assay as above. Settings: 72 h.

SMILES	selective drug sensitivity score
NCCNc1ccc(NCCN)c2c1C(=O)c1ccncc1C2=O [Pixantrone] (top concentration 10000 nM)	-2.76
c1cc(CN2CCCNCCNCCCNCC2)ccc1CN1CCCNCCNCCCNCC1 [Plerixafor] (top concentration 10000 nM)	0
O=C(c1ccc(OCCN2CCCCC2)cc1)c1c(-c2ccc(O)cc2)sc2cc(O)ccc12 [Raloxifene] (top concentration 10000 nM)	-0.48
CN(C)C(=O)c1cc2cnc(Nc3ccc(N4CCNCC4)cn3)nc2n1C1CCCC1 [Ribociclib] (top concentration 10000 nM)	2.18
CN1CCN(CCOc2cc(OC3CCOCC3)c3c(Nc4c(Cl)ccc5c4OCO5)ncnc3c2)CC1 [Saracatinib] (top concentration 10000 nM)	0.08
C=CC(=O)Nc1cccc(Nc2nc(Nc3ccc(OCCOC)cc3)ncc2F)c1 [Spebrutinib] (top concentration 1000 nM)	-0.16
C[C@@H]1CN(Cc2ccc(F)cc2)[C@@H](C)CN1C(=O)c1cc2c(C(=O)C(=O)N(C)C)cn(C)c2cc1Cl [Talmapimod] (top concentration 10000 nM)	0
C[C@@H](C(=O)O)c1ccc(-c2ccccc2)c(F)c1 [Tarenflurbil] (top concentration 10000 nM)	-0.16
CNC(=O)c1cc(COc2nnc(Nc3ccc(Cl)cc3)c3ccoc23)ccn1 [Telatinib] (top concentration 10000 nM)	0
O=c1sn(-c2cccc3ccccc23)c(=O)n1Cc1ccccc1 [Tideglusib] (top concentration 3000 nM)	-0.3
COc1cc2nccc(Oc3ccc(NC(=O)Nc4cc(C)on4)c(Cl)c3)c2cc1OC [Tivozanib] (top concentration 10000 nM)	2.66
Cc1cc(Nc2cc(N3CCN(C)CC3)nc(Sc3ccc(NC(=O)C4CC4)cc3)n2)n[nH]1 [Tozasertib] (top concentration 10000 nM)	22.8
CC1=C(/C=C/C(C)=C/C=C/C(C)=C/C(=O)O)C(C)(C)CCC1 [Tretinoin] (top concentration 10000 nM)	-2.4
COC(=O)c1ccc2c(c1)[nH]c1ncnc(NCCCN3CCCCC3)c12 [UM729] (top concentration 10000 nM)	-0.06
COc1cc2c(NC3CCN(C(C)C)CC3)nc(N3CCC(F)(F)CC3)nc2cc1OCCCN1CCCC1 [UNC0642] (top concentration 10000 nM)	-0.14
O=C(c1ccc(C(=O)N2CCC(N3CCCC3)CC2)c(Nc2ccccc2)c1)N1CCC(N2CCCC2)CC1 [UNC1215] (top concentration 10000 nM)	0
CCCC(CCC)C(=O)O [Valproic_acid] (top concentration 1000000 nM)	0
Clc1ccc(Nc2nnc(Cc3ccncc3)c3ccccc23)cc1 [Vatalanib] (top concentration 10000 nM)	0
CCCS(=O)(=O)Nc1ccc(F)c(C(=O)c2c[nH]c3ncc(-c4ccc(Cl)cc4)cc23)c1F [Vemurafenib] (top concentration 10000 nM)	4.16
